# Data reported in patent publication US20120016019A1, “PHARMACEUTICAL COMPOSITION FOR TREATING OR PREVENTING CANCER” (priority 2010, published 2012).
# Several values for one entry are separate records, joined by “and”; a condition that tells them apart may be missing. Equal entries are not always repeated. Where two headings read alike, the source gives them in different places.
# How the values were obtained:
# SKBR3 = conditions: for The absorbance, Mean value / The absorbance, group - Blank / The absorbance: SKBR3, XTT 500 nm; for The absorbance: single wells
# Method: (§1) Cancer cell lines HCC 1419, MCF-7, MDA-MB-468, SKBR3, PC3, HT1299, Saos-2, C-6, AsPc, MDA-MB-231, RKO, HeLa and TT, and normal cell lines HME 50 HT, BJ and CCD-1074sk were tested for changes in metabolism (XTT assay) and cell death (cell counts).
# (§2) Cells were plated into 48-well Corning CellBind™ plates at densities of 20,000 cells for normal cells and 10,000˜20,000 cells for cancer cells. 24 to 48 h after plating, cells were treated with the composition according to the invention at concentrations of 4.5e-2M. The first time point treated with the composition of the invention is 0 h. At 3 days after the first treatment with the composition of the invention, medium was changed and the composition of the invention at the same concentrations were added to the cultured cells.
# (§3) The XTT assay is an accepted analysis technique for viability and cytotoxicity of anticancer drugs or other pharmaceutical compositions. Cells were seeded in a 96-well tissue culture plate at a density of 10,000 cells for normal cells and 5,000 cells for cancer cells. After incubation period, the formazan dye formed was quantitated using an ELISA reader. The optimal wavelength used in experiments was 500 nm, and it was measured at 0 h, 12 h, 24 h, 48 h, 4 d and 7 d, respectively. The obtained values were generated using the software SoftMax Pro 4.8.
# (§4) The cell viability was calculated according to the manufacturer's instructions as follows (the term “blank” means XTT in medium only):
# (§5) Cellular cytotoxicity was calculated according to the manufacturer's instructions as follows: […]
# C-6 = tested on: C-6
# Method: as §1, §2, §3, §4, §5
# HT 1299 = conditions: for The cytotoxicity / The viability: 220 nM; for The absorbance / The absorbance, Mean value / The absorbance, group - Blank: HT 1299
# Method: as §1, §2, §3, §4, §5
# [1] = XTT 500 nm, 2nd week (recovery), 0 h
# [2] = XTT 500 nm, 2nd week (recovery), 24 h
# [3] = XTT 500 nm, 2nd week (recovery), 48 h
# [4] = XTT 500 nm, 2nd week (recovery), 4 d
compound,measurement,setting,value
CC(=O)O[C@H]1C(=O)[C@@]2(C)[C@H]([C@H](OC(=O)c3ccccc3)[C@]3(O)C[C@H](OC(=O)[C@H](O)[C@@H](NC(=O)c4ccccc4)c4ccccc4)C(C)=C1C3(C)C)[C@]1(OC(C)=O)CO[C@@H]1C[C@@H]2O [Taxol],"The absorbance, Mean value","SKBR3; 1st week (LC50), 0 h",0.3968
same,"The absorbance, group - Blank","SKBR3; 1st week (LC50), 0 h",0.2164
same,The absorbance,"SKBR3; 1st week (LC50), 0 h",0.4034 and 0.3885 and 0.3985
same,"The absorbance, Mean value","SKBR3; 1st week (LC50), 12 h",1.5205
same,"The absorbance, group - Blank","SKBR3; 1st week (LC50), 12 h",1.3402
same,"The absorbance, group - Blank","SKBR3; 1st week (LC50), 24 h",1.8347
same,"The absorbance, Mean value","SKBR3; 1st week (LC50), 48 h",1.6721
same,"The absorbance, group - Blank","SKBR3; 1st week (LC50), 48 h",1.4917
same,The absorbance,"SKBR3; 1st week (LC50), 48 h",1.6738 and 1.629 and 1.7134
same,"The absorbance, Mean value","SKBR3; 1st week (LC50), 4 d",1.1935
same,The absorbance,"SKBR3; 1st week (LC50), 4 d",1.2586 and 1.1724 and 1.1494
same,"The absorbance, Mean value","SKBR3; 1st week (LC50), 7 d",1.0281
same,"The absorbance, group - Blank","SKBR3; 1st week (LC50), 7 d",0.8478
same,The absorbance,"SKBR3; 1st week (LC50), 7 d",0.9379 and 0.9708 and 1.1757
same,"The absorbance, Mean value","SKBR3; 2nd week (recovery), 0 h",1.0435
same,"The absorbance, group - Blank","SKBR3; 2nd week (recovery), 0 h",0.8631
same,The absorbance,"SKBR3; 2nd week (recovery), 0 h",1.0568 and 1.0836 and 0.99
same,"The absorbance, Mean value","SKBR3; 2nd week (recovery), 24 h",1.1704
same,"The absorbance, group - Blank","SKBR3; 2nd week (recovery), 24 h",0.9900
same,The absorbance,"SKBR3; 2nd week (recovery), 24 h",1.1654 and 1.3673 and 0.9784
same,"The absorbance, Mean value","SKBR3; 2nd week (recovery), 48 h",1.0440
same,"The absorbance, group - Blank","SKBR3; 2nd week (recovery), 48 h",0.8636
same,The absorbance,"SKBR3; 2nd week (recovery), 48 h",0.9057 and 0.8251 and 1.4012
same,"The absorbance, Mean value","SKBR3; 2nd week (recovery), 4 d",1.2517
same,"The absorbance, group - Blank","SKBR3; 2nd week (recovery), 4 d",1.0713
same,The absorbance,"SKBR3; 2nd week (recovery), 4 d",1.252 and 1.6151 and 0.888
same,"The absorbance, Mean value","SKBR3; 2nd week (recovery), 7 d",0.9393
same,"The absorbance, group - Blank","SKBR3; 2nd week (recovery), 7 d",0.7590
same,The absorbance,"SKBR3; 2nd week (recovery), 7 d",0.7048 and 1.1412 and 0.972
same,The cytotoxicity,"SKBR3; human, 0 h, 220 nM",−1.4298
same,The viability,"SKBR3; human, 12 h, 220 nM",0.7165
same,The cytotoxicity,"SKBR3; human, 24 h, 220 nM",0.4771
same,The cytotoxicity,"SKBR3; human, 48 h, 220 nM",0.6010
same,The absorbance,"C-6; C-6, 1st week (LC50), 0 h",2.6477 and 2.6197 and 2.482
same,"The absorbance, Mean value","C-6; C-6, 1st week (LC50), 0 h",2.5831
same,"The absorbance, group - Blank","C-6; C-6, 1st week (LC50), 0 h",2.0608
same,The absorbance,"C-6; C-6, 1st week (LC50), 12 h",2.851 and 2.8475 and 2.6595
same,"The absorbance, Mean value","C-6; C-6, 1st week (LC50), 12 h",2.7860
same,"The absorbance, group - Blank","C-6; C-6, 1st week (LC50), 12 h",2.2637
same,The absorbance,"C-6; C-6, 1st week (LC50), 24 h",2.6263 and 2.6408 and 2.7106
same,"The absorbance, Mean value","C-6; C-6, 1st week (LC50), 24 h",2.6592
same,"The absorbance, group - Blank","C-6; C-6, 1st week (LC50), 24 h",2.1369
same,The absorbance,"C-6; C-6, 1st week (LC50), 48 h",2.5907 and 2.3173 and 2.5122
same,"The absorbance, Mean value","C-6; C-6, 1st week (LC50), 48 h",2.4734
same,"The absorbance, group - Blank","C-6; C-6, 1st week (LC50), 48 h",1.9511
same,The absorbance,"C-6; C-6, 1st week (LC50), 4 d",3.4031 and 2.4181 and 2.3613
same,"The absorbance, Mean value","C-6; C-6, 1st week (LC50), 4 d",2.7275
same,"The absorbance, group - Blank","C-6; C-6, 1st week (LC50), 4 d",2.2052
same,The absorbance,"C-6; C-6, 1st week (LC50), 7 d",2.334 and 2.3441 and 2.3017
same,"The absorbance, Mean value","C-6; C-6, 1st week (LC50), 7 d",2.3266
same,"The absorbance, group - Blank","C-6; C-6, 1st week (LC50), 7 d",1.8043
same,The absorbance,"C-6; C-6, 2nd week (recovery), 0 h",2.7171 and 2.4409 and 2.6926
same,"The absorbance, Mean value","C-6; C-6, 2nd week (recovery), 0 h",2.6169
same,"The absorbance, group - Blank","C-6; C-6, 2nd week (recovery), 0 h",2.0945
same,The absorbance,"C-6; C-6, 2nd week (recovery), 24 h",1.9908 and 2.3106 and 2.2634
same,"The absorbance, Mean value","C-6; C-6, 2nd week (recovery), 24 h",2.1883
same,"The absorbance, group - Blank","C-6; C-6, 2nd week (recovery), 24 h",1.6659
same,The absorbance,"C-6; C-6, 2nd week (recovery), 48 h",3.111 and 2.4572 and 2.7053
same,"The absorbance, Mean value","C-6; C-6, 2nd week (recovery), 48 h",2.7578
same,"The absorbance, group - Blank","C-6; C-6, 2nd week (recovery), 48 h",2.2355
same,The absorbance,"C-6; C-6, 2nd week (recovery), 4 d",2.6888 and 2.7862 and 2.8075
same,"The absorbance, Mean value","C-6; C-6, 2nd week (recovery), 4 d",2.7608
same,"The absorbance, group - Blank","C-6; C-6, 2nd week (recovery), 4 d",2.2385
same,The viability,"C-6; C-6, 2nd week (recovery), 4 d",0.8937
same,The absorbance,"C-6; C-6, 2nd week (recovery), 7 d",2.4639 and 2.1497 and 2.4909
same,"The absorbance, Mean value","C-6; C-6, 2nd week (recovery), 7 d",2.3682
same,"The absorbance, group - Blank","C-6; C-6, 2nd week (recovery), 7 d",1.8458
same,The cytotoxicity,"C-6; rat, 12 h, 220 nM",0.1898
same,The viability,"C-6; rat, 12 h, 220 nM",0.8102
same,The viability,"C-6; rat, 4 d, 220 nM",0.8804
same,The cytotoxicity,HT 1299; 0 h,0.0206
same,The viability,HT 1299; 0 h,0.9794
same,The cytotoxicity,HT 1299; 12 h,0.0709
same,The viability,HT 1299; 12 h,0.9291
same,The cytotoxicity,HT 1299; 24 h,0.0409
same,The viability,HT 1299; 24 h,0.9591
same,The cytotoxicity,HT 1299; 48 h,0.0368
same,The viability,HT 1299; 48 h,0.9632
same,The viability,HT 1299; 4 d,0.8406
same,The viability,HT 1299; 7 d,0.3389
same,The absorbance,"HT 1299; 1st week (LC50), 0 h",2.7643 and 2.716 and 2.6703
same,"The absorbance, Mean value","HT 1299; 1st week (LC50), 0 h",2.7169
same,"The absorbance, group - Blank","HT 1299; 1st week (LC50), 0 h",2.5063
same,The absorbance,"HT 1299; 1st week (LC50), 12 h",2.8939 and 2.8933 and 2.8787
same,"The absorbance, Mean value","HT 1299; 1st week (LC50), 12 h",2.8886
same,"The absorbance, group - Blank","HT 1299; 1st week (LC50), 12 h",2.6781
same,The absorbance,"HT 1299; 1st week (LC50), 24 h",2.7759 and 2.8539 and 2.8128
same,"The absorbance, Mean value","HT 1299; 1st week (LC50), 24 h",2.8142
same,"The absorbance, group - Blank","HT 1299; 1st week (LC50), 24 h",2.6036
same,The absorbance,"HT 1299; 1st week (LC50), 48 h",2.5408 and 2.6225 and 2.6333
same,"The absorbance, Mean value","HT 1299; 1st week (LC50), 48 h",2.5989
same,"The absorbance, group - Blank","HT 1299; 1st week (LC50), 48 h",2.3883
same,The absorbance,"HT 1299; 1st week (LC50), 4 d",2.817 and 2.6791 and 2.5786
same,"The absorbance, Mean value","HT 1299; 1st week (LC50), 4 d",2.6916
same,"The absorbance, group - Blank","HT 1299; 1st week (LC50), 4 d",2.4810
same,The absorbance,"HT 1299; 1st week (LC50), 7 d",1.504
same,"The absorbance, group - Blank","HT 1299; 1st week (LC50), 7 d",1.0771
same,"The absorbance, Mean value",HT 1299; [1],2.0676
same,"The absorbance, group - Blank",HT 1299; [1],1.7954
same,The absorbance,"HT 1299; XTT 500 nm, 2nd week (recovery), 0 h, single wells",1.9675 and 1.8392 and 2.3962
same,"The absorbance, Mean value",HT 1299; [2],2.6177
same,"The absorbance, group - Blank",HT 1299; [2],2.3455
same,The absorbance,"HT 1299; XTT 500 nm, 2nd week (recovery), 24 h, single wells",2.6918 and 2.5521 and 2.6093
same,"The absorbance, Mean value",HT 1299; [3],2.4695
same,"The absorbance, group - Blank",HT 1299; [3],2.1973
same,"The absorbance, Mean value",HT 1299; [4],2.3404
same,"The absorbance, group - Blank",HT 1299; [4],2.0681
same,The absorbance,"HT 1299; XTT 500 nm, 2nd week (recovery), 4 d, single wells",2.6902 and 1.9256 and 2.4054
same,The cytotoxicity,"HT 1299; human, 0 h",0.2984
same,The viability,"HT 1299; human, 0 h",0.7016
same,The cytotoxicity,"HT 1299; human, 24 h",0.1360
same,The viability,"HT 1299; human, 24 h",0.8640
same,The cytotoxicity,"HT 1299; human, 48 h",0.1139
same,The viability,"HT 1299; human, 48 h",0.8861
same,The viability,"HT 1299; human, 4 d",0.7007
same,The cytotoxicity,"HT 1299; human, 7 d",0.6611
